Reference: patent publication US9296741B2, “Bromodomain inhibitors” (priority 2012, dated 2016)
pEC50, pKi: −log10 of the molar value.

What was measured:
[1] = Rat liver microsome stability assay; assay type: in vitro ADME; details: rat liver microsomes (male Sprague-Dawley), 0.5 μM test compound, pH 7.4, 37° C.; for half-life at 0.5 μM: 0.25 mg/mL microsomal protein, read-out: Stability in rat liver microsomes (t1/2 in minutes); for Stability in rat liver microsomes (t1/2 in minutes): […] microsomal protein
[2] = Mouse liver microsome stability assay; assay type: in vitro ADME; details: male, CD1, mouse, microsomes, pH 7.4
[3] = Human liver microsome stability assay; assay type: in vitro ADME; details: both sexes, human, microsomes, pH 7.4
[4] = system: breast cancer cell line MX-1; test: MX-1 cell line proliferation assay; assay type: cell-based, human; details: Homo sapiens, MX1, 72 h; MX-1 cells, 3-day proliferation, Cell Titer Glo; read-out: Cellular proliferation: EC50
[5] = molecular target: human BRD4 second bromodomain (BDII_E352-M457) (Homo sapiens (Human), UniProt O60885); test: TR-FRET bromodomain binding assay, BRD4 second bromodomain
[6] = molecular target: human BRD4 first bromodomain (BDI_K57-E168) (Homo sapiens (Human), UniProt O60885); test: TR-FRET bromodomain binding assay, BRD4 first bromodomain

| half-life at 0.5 μM [1] [min] | half-life at 0.5 μM [2] [min] | half-life at 0.5 μM [3] [min] | pEC50 [4] | pKi [5] | pKi [6] | Stability in rat liver microsomes (t1/2 in minutes) [1] [min] | Compound |
| --- | --- | --- | --- | --- | --- | --- | --- |
| 7 | 3 | 30 | 7.34 | 8.24 | 8.28 |  | CC(=O)Nc1ccc(Oc2ccccc2)c(-c2cn(C)c(=O)c3[nH]ccc23)c1 [Example 6, N-[3-(6-methyl-7-oxo-6,7-dihydro-1H-pyrrolo[2,3-c]pyridin-4-yl)-4-phenoxyphenyl]acetamide] |
| 2 | 4 | 12 | < 5.52 | 7.11 | 6.92 |  | Cc1ccc(S(=O)(=O)n2ccc3c(-c4cc(NS(C)(=O)=O)ccc4Oc4ccccc4)cn(C)c(=O)c32)cc1 [Example 7, N-(3-{6-methyl-1-[(4-methylphenyl)sulfonyl]-7-oxo-6,7-dihydro-1H-pyrrolo[2,3-c]pyridin-4-yl}-4-phenoxyphenyl)methanesulfonamide] |
|  | 9 | 19 | 7.61 | 8.41 | 8.59 | 1 | CN(c1ccc(Oc2ccccc2)c(-c2cn(C)c(=O)c3[nH]ccc23)c1)S(C)(=O)=O [Example 8, N-methyl-N-[3-(6-methyl-7-oxo-6,7-dihydro-1H-pyrrolo[2,3-c]pyridin-4-yl)-4-phenoxyphenyl]methanesulfonamide] |
| > 120 | > 120 | 78 | < 5.52 | 8.07 | 7.81 |  | Cn1cc(-c2cc(C(=O)O)ccc2Oc2ccccc2)c2cc[nH]c2c1=O [Example 10, 3-(6-methyl-7-oxo-6,7-dihydro-1H-pyrrolo[2,3-c]pyridin-4-yl)-4-phenoxybenzoic acid] |
| 2 | 22 | 66 | 6.89 | 8.47 | 8.43 |  | CCNC(=O)c1ccc(Oc2ccccc2)c(-c2cn(C)c(=O)c3[nH]ccc23)c1 [Example 13, N-ethyl-3-(6-methyl-7-oxo-6,7-dihydro-1H-pyrrolo[2,3-c]pyridin-4-yl)-4-phenoxybenzamide] |
| 6 | 8 | 37 | 6.77 | 7.91 | 8.26 |  | Cn1cc(-c2cc(C(=O)NCC3CCCO3)ccc2Oc2ccccc2)c2cc[nH]c2c1=O (stereo not shown) [Example 14, 3-(6-methyl-7-oxo-6,7-dihydro-1H-pyrrolo[2,3-c]pyridin-4-yl)-4-phenoxy-N-(tetrahydrofuran-2-ylmethyl)benzamide] |
| 4 | 7 | 10 | 6.85 | 8.12 | 8.38 |  | Cn1cc(-c2cc(C(=O)NC3CCCC3)ccc2Oc2ccccc2)c2cc[nH]c2c1=O [Example 15, N-cyclopentyl-3-(6-methyl-7-oxo-6,7-dihydro-1H-pyrrolo[2,3-c]pyridin-4-yl)-4-phenoxybenzamide] |
| 4 | 22 | > 120 | 7.02 | 8.28 | 8.37 |  | Cn1cc(-c2cc(C(=O)NCC(F)F)ccc2Oc2ccccc2)c2cc[nH]c2c1=O [Example 16, N-(2,2-difluoroethyl)-3-(6-methyl-7-oxo-6,7-dihydro-1H-pyrrolo[2,3-c]pyridin-4-yl)-4-phenoxybenzamide] |
| 11 | 15 | 31 | 6.68 | 7.99 | 7.99 |  | Cn1cc(-c2cc(C(=O)NC3CCS(=O)(=O)C3)ccc2Oc2ccccc2)c2cc[nH]c2c1=O (stereo not shown) [Example 18, N-(1,1-dioxidotetrahydrothiophen-3-yl)-3-(6-methyl-7-oxo-6,7-dihydro-1H-pyrrolo[2,3-c]pyridin-4-yl)-4-phenoxybenzamide] |
| 13 | 33 | 92 | 6.91 | 8.38 | 8.13 |  | Cn1cc(-c2cc(C(N)=O)ccc2Oc2ccccc2)c2cc[nH]c2c1=O [Example 19, 3-(6-methyl-7-oxo-6,7-dihydro-1H-pyrrolo[2,3-c]pyridin-4-yl)-4-phenoxybenzamide] |
|  | 7 | 18 | 6.72 | 9.17 | 7.96 | 1 | Cn1cc(-c2cc(CO)ccc2Oc2ccccc2)c2cc[nH]c2c1=O [Example 20, 4-[5-(hydroxymethyl)-2-phenoxyphenyl]-6-methyl-1,6-dihydro-7H-pyrrolo[2,3-c]pyridin-7-one] |
| 3 | 22 | > 120 | 7.86 | 9.60 | 9.41 |  | CCS(=O)(=O)Nc1ccc(Oc2ccccc2)c(-c2cn(C)c(=O)c3[nH]ccc23)c1 [Example 21, N-[3-(6-methyl-7-oxo-6,7-dihydro-1H-pyrrolo[2,3-c]pyridin-4-yl)-4-phenoxyphenyl]ethanesulfonamide] |
| 3 | 10.7 | 32 | 7.19 | 9.00 | 8.66 |  | CN(C)S(=O)(=O)Nc1ccc(Oc2ccccc2)c(-c2cn(C)c(=O)c3[nH]ccc23)c1 [Example 22, N,N-dimethyl-N′-[3-(6-methyl-7-oxo-6,7-dihydro-1H-pyrrolo[2,3-c]pyridin-4-yl)-4-phenoxyphenyl]sulfuric diamide] |
| 3 | 4 |  | 6.11 | 7.20 | 7.27 |  | Cn1cc(-c2cc(NS(=O)(=O)CCF)ccc2Oc2ccc(F)cc2F)c2cc[nH]c2c1=O [Example 64, N-[4-(2,4-difluorophenoxy)-3-(6-methyl-7-oxo-6,7-dihydro-1H-pyrrolo[2,3-c]pyridin-4-yl)phenyl]-2-fluoroethanesulfonamide] |
| 3 | 43 |  | 6.37 | 7.37 | 7.68 |  | CCN(C)C(=O)c1cc2c(-c3cc(NS(C)(=O)=O)ccc3Oc3ccccc3)nn(C)c(=O)c2[nH]1 [Example 83, N-ethyl-N,6-dimethyl-4-{5-[(methylsulfonyl)amino]-2-phenoxyphenyl}-7-oxo-6,7-dihydro-1H-pyrrolo[2,3-d]pyridazine-2-carboxamide] |
| > 120 | > 120 | > 120 | 6.38 |  |  |  | Cn1cc(-c2cc(S(C)(=O)=O)ccc2Oc2ccc(S(C)(=O)=O)cc2)c2cc[nH]c2c1=O [Example 270, 6-methyl-4-{5-(methylsulfonyl)-2-[4-(methylsulfonyl)phenoxy]phenyl}-1,6-dihydro-7H-pyrrolo[2,3-c]pyridin-7-one] |
| 41 | 91 |  | 6.44 | 6.88 | 7.50 |  | CN(C)Cc1cc2c(-c3cc(S(C)(=O)=O)ccc3Oc3ccc(F)cc3F)cn(C)c(=O)c2[nH]1 [Example 279, 4-[2-(2,4-difluorophenoxy)-5-(methylsulfonyl)phenyl]-2-[(dimethylamino)methyl]-6-methyl-1,6-dihydro-7H-pyrrolo[2,3-c]pyridin-7-one] |
| 57 | 116 | > 120 | 7.73 |  |  |  | CCS(=O)(=O)Nc1ccc(Oc2ccc(F)cc2F)c(-c2cn(C)c(=O)c3[nH]ncc23)c1 [Example 320, N-[4-(2,4-difluorophenoxy)-3-(6-methyl-7-oxo-6,7-dihydro-1H-pyrazolo[3,4-c]pyridin-4-yl)phenyl]ethanesulfonamide] |
| > 120 | > 120 | > 120 | 7.42 |  |  |  | CCS(=O)(=O)c1ccc(OCC2CC2)c(-c2cn(C)c(=O)c3[nH]ncc23)c1 [Example 323, 4-[2-(cyclopropylmethoxy)-5-(ethylsulfonyl)phenyl]-6-methyl-1,6-dihydro-7H-pyrazolo[3,4-c]pyridin-7-one] |
| > 120 | > 120 | > 120 | 6.32 |  |  |  | CCS(=O)(=O)c1ccc(N2CCN(C)CC2)c(-c2cn(C)c(=O)c3[nH]ccc23)c1 [Example 331, 4-[5-(ethylsulfonyl)-2-(4-methylpiperazin-1-yl)phenyl]-6-methyl-1,6-dihydro-7H-pyrrolo[2,3-c]pyridin-7-one] |
|  | 21 | 34 | 6.29 | 5.93 | 6.18 |  | Cn1cc(-c2cc(-c3cccc(F)c3)ccc2OCC2CC2)c2cc[nH]c2c1=O [Example 334, 4-[4-(cyclopropylmethoxy)-3′-fluorobiphenyl-3-yl]-6-methyl-1,6-dihydro-7H-pyrrolo[2,3-c]pyridin-7-one] |
| 34 | 54 | 35 | 7.65 |  |  |  | Cn1cc(-c2cc(CS(C)(=O)=O)ccc2Nc2ccc(F)cc2)c2cc[nH]c2c1=O [Example 335, 4-{2-[(4-fluorophenyl)amino]-5-[(methylsulfonyl)methyl]phenyl}-6-methyl-1,6-dihydro-7H-pyrrolo[2,3-c]pyridin-7-one] |
